# Where two headings read alike, the source gives them in different places.
# Columns and labels:
# Format in all cases: cell-based, human
# HMGN1 [1] = experiment: HMGN1 ELISA in culture medium of A549 cancer cells (Example 12, Table 66); settings: Homo sapiens; for activity at 90 µM: test compound 90 μM
# HMGN1 [2] = experiment: HMGN1 ELISA in culture medium of foreskin cells (Examples 10, 11; Tables 62, 63, 64); settings: Homo sapiens; for activity at 30 µM: read-out: HMGN1; for activity at 90 µM: 90 μM test compound
# [3] = system: foreskin cells in which senescence was induced by doxorubicin; experiment: CellTiter-Glo cell viability of doxorubicin-induced senescent foreskin cells (Examples 1-2, 10, 11, 13; Tables 4, 63, 65); settings: for viability at 1.1 µM / viability at 10 µM / viability at 30 µM / viability at 90 µM / viability at […]: Homo sapiens, 72 h, read-out: Survival (%); for viability at 30 µM: 30 μM test compound; for viability at 90 µM: 90 μM test compound
# Experimental: After 3 days, cell viability was measured using CellTiter-Glo Luminescent Cell Viability Assay (Promega) or light microscopy.
# A549 = experiment: CellTiter-Glo cell viability of senescent A549 cancer cells (Example 12, Table 67); settings: Homo sapiens; for viability at 90 µM: 90 μM test compound
# [4] = A549, doxorubicin-induced senescent A549 cells, test compound 30 μM, ELISA, DMSO = 100, read-out: HMGN1 (amount of HMGN1 secreted in the cell culture)
# [5] = 30 μM test compound, doxorubicin-treated foreskin cells, DMSO = 100
# [6] = 1.1 μM test compound, doxorubicin-induced senescent foreskin cells, CellTiter-Glo, 0 μM = 100
# [7] = […] test compound, doxorubicin-induced senescent foreskin cells, CellTiter-Glo, 0 μM = 100
# [8] = A549, doxorubicin-induced senescent A549 cancer cells, 1.1 μM test compound, CellTiter-Glo, read-out: Survival (%)
# [9] = A549, doxorubicin-induced senescent A549 cells, ELISA, DMSO = 100, read-out: HMGN1 (amount of HMGN1 secreted in the cell culture)
# [10] = doxorubicin-treated foreskin cells, DMSO = 100
# [11] = 10 μM test compound, doxorubicin-induced senescent foreskin cells, CellTiter-Glo, 0 μM = 100
# [12] = doxorubicin-induced senescent foreskin cells, CellTiter-Glo, 0 μM = 100
# [13] = A549, doxorubicin-induced senescent A549 cancer cells, 10 μM test compound, CellTiter-Glo, read-out: Survival (%)
# [14] = A549, doxorubicin-induced senescent A549 cancer cells, 30 μM test compound, CellTiter-Glo, read-out: Survival (%)
# [15] = A549, doxorubicin-induced senescent A549 cancer cells, CellTiter-Glo, read-out: Survival (%)
Structure (SMILES),activity at 30 µM (HMGN1 [1]; [4]) [%],activity at 30 µM (HMGN1 [2]; [5]) [%],"viability at 1.1 µM [3, 6] [%]",viability at 1.1 µM (A549; [8]) [%],"viability at 10 µM [3, 11] [%]","viability at 30 µM [3, 12] [%]","viability at […] [3, 7] [%]",viability at 10 µM (A549; [13]) [%],viability at 30 µM (A549; [14]) [%],further results
"Cc1onc(C(=O)N2CCN(C(c3ccc(Cl)cc3)c3ccc(OCc4cn(CCOCCOCCNc5cccc6c5C(=O)N(C5CCC(=O)NC5=O)C6=O)nn4)cc3)CC2)c1[N+](=O)[O-] (stereo not shown) [LX-432, 4-((2-(2-(2-(4-((4-((4-chlorophenyl)(4-(5-methyl-4-nitroisooxazol-3-carbonyl)piperazin-1-yl)methyl)phenoxy)methyl)-1H-1,2,3-triazol-1-yl)ethoxy)ethoxy)ethyl)amino)-2-(2,6-dioxopiperidin-3-yl)isoindolin-1,3-dione]",270,304,84.2,97.1,,,,,,"Survival (%) [3, 7]: 23.8%"
"CCCCC/C=C\C/C=C\C/C=C\CCCCCCC(=O)O [LX-2705, Dihomogamma-linolenic acid]",,,102,101,72.1,45.5,102,96.8,100,"activity at 90 µM (HMGN1 [1]; [9]): 160%; activity at 90 µM (HMGN1 [2]; [10]): 202%; viability at 90 µM [3, 12]: 31.7%; viability at 90 µM (A549; [15]): 61.2%"
"CCc1ccc(C(=O)C(C)CN2CCCC2)cc1 (stereo not shown) [LX-1405, Inaperisone, reference compound]",187,219,102,97.1,69.6,28.5,92.7,82.8,37.4,
Cc1ccc(-c2c(C#N)c(N)n3c(nc4ccccc43)c2C#N)cc1 [LX-1101],,268,108,95.4,47.1,22.8,112,92.7,88.3,activity at 90 µM (HMGN1 [1]; [9]): 183%; viability at 90 µM (A549; [15]): 23.7%
C[C@@H]1C(=O)C(C#N)=C[C@]2(C)C3=CC(=O)[C@@H]4[C@@H]5CC(C)(C)CC[C@]5(c5nnc(CF)o5)CC[C@@]4(C)[C@]3(C)CC[C@@H]12 [LX-2507],248,267,46.6,97.5,,,38.6,35.7,,
COC(=O)c1ccc([C@H]2c3ccc(OC)cc3C[C@H](C(=O)OC)N2C(=O)CCl)cc1 [LX-416],315,293,70.3,91.4,,,29.1,,,
CCN(CC)c1nc2c(C(=O)O)c(O)c(I)c(-n3cccc3)c2s1 [LX-911],,294,94.3,98.4,43.5,7.5,91.6,82.9,78.6,activity at 90 µM (HMGN1 [1]; [9]): 206%; viability at 90 µM (A549; [15]): 27.4%
CCn1c2ccccc2c2cc(CNC)ccc21 [LX-901],,257,99.5,97.8,67.5,15.8,98.4,82.7,34.8,activity at 90 µM (HMGN1 [1]; [9]): 255%; viability at 90 µM (A549; [15]): 11.7%
"COc1cc2c(Nc3ccc(Br)cc3F)ncnc2cc1OCC1CCN(C)CC1 [LX-3302, Vandetanib, reference compound]",232,268,99.3,99.5,6.7,,51.9,67.9,16.4,
CCn1c2ccc(CNC)cc2c2ccc(-c3cnoc3)cc21 [LX-903],,324,104,98.9,73.2,5.7,89.8,81.6,42.7,activity at 90 µM (HMGN1 [1]; [9]): 239%; viability at 90 µM (A549; [15]): 12.3%
"C[C@H]1[C@H](C)CC[C@]2(C(=O)O)CC[C@]3(C)C(=CC[C@@H]4[C@@]5(C)CC[C@H](O)C(C)(C)[C@@H]5CC[C@]43C)[C@H]12 [LX-2001, Ursolic acid]",328,328,75.2,98.3,,,0.8,5.1,,
"Clc1ccc(C(c2ccccc2Cl)C(Cl)Cl)cc1 (stereo not shown) [LX-1301, Mitotane, reference compound]",318,281,104,106,83,0.4,106,101,17.5,
Cc1[nH]nc(C(F)(F)F)c1Cc1sc2c(c1C(=O)N1C[C@](C)(O)CO1)c(=O)n(C)c(=O)n2C(C)C [LX-3203],293,315,107,105,,,15.4,21.6,,
C[C@H](N)C(=O)N1C[C@H](CCCB(O)O)[C@](N)(C(=O)O)C1 [LX-3107],267,196,87.7,96.5,74.2,33.4,83.4,77.8,4.4,
COC(=O)[C@]12CCC(C)(C)C[C@H]1[C@H]1C(=O)C[C@@H]3[C@@]4(C)C=C(C#N)C(=O)C(C)(C)[C@@H]4CC[C@@]3(C)[C@]1(C)CC2 [LX-2301],274,283,2.6,21.5,,,,,,
"O=C(NCc1ccncc1)C12CC3CC(C1)CC(c1ccc(Cl)cc1)(C3)C2 [LX-3106, Opaganib, reference compound]",,,97.7,108,82.5,59.7,87.4,91.7,76.8,"activity at 90 µM (HMGN1 [1]; [9]): 236%; activity at 90 µM (HMGN1 [2]; [10]): 254%; viability at 90 µM [3, 12]: 9.8%; viability at 90 µM (A549; [15]): 4.7%"
"C[C@H](CN1CCCC1)C(=O)c1ccc(C(F)(F)F)cc1 [LX-1402, Lanperisone, reference compound]",248,304,101,97.6,15.6,2.1,97.6,81.1,29.5,
"CC1(C)CC[C@]2(C(=O)NCC(F)(F)F)CC[C@]3(C)[C@H](C(=O)C[C@@H]4[C@@]5(C)C=C(C#N)C(=O)C(C)(C)[C@@H]5CC[C@]43C)[C@@H]2C1 [LX-2302, Dihydro-CDDO-Trifluoroethyl Amide]",313,279,48.9,95.9,,,6.3,5.4,,
"C=C1C(=O)C2CCN1CC2 [LX-702, 2-Methylene-3-quinuclidinone]",,,,,,,,,,"activity at 30 µM (HMGN1 [1]; A549, read-out: HMGN1 (amount of HMGN1 secreted in the cell culture)): 305%; activity at 30 µM (HMGN1 [2]): 278%; viability at 1.1 µM [3]: 82.1%; viability at 10 µM [3]: 6.5%; viability at 1.1 µM (A549; A549, read-out: Survival (%)): 87.3%; viability at 10 µM (A549; A549, read-out: Survival (%)): 33.4%; viability at 30 µM (A549; A549, read-out: Survival (%)): 3%"
"Cc1ccc(C(=O)C(C)CN2CCCCC2)cc1 (stereo not shown) [LX-1403, Tolperisone, reference compound]",306,282,102,97.6,55.4,18.3,97.6,70,8.4,
CCC[C@H]1C(=O)C(C#N)=C[C@@]2(C)c3nc(-c4ccnc5ccccc45)nc(-c4ccccc4F)c3CC[C@H]12 [LX-2502],297,258,49.6,97.2,,,13.4,5.9,,
